Data taken from patent US12544375B2, “Small molecule therapeutic for parkinson's disease paired with a biomarker of therapeutic activity” (The Board of Trustees of the Leland Stanford Junior …, priority 2019, dated 2026).

Test system: LRRK2^G2019S, PINK1 null and SNCA^A53T flies
Assay: Fly lifespan (survival curves)
Assay type: in vivo
Experimental: FIG. 4A-FIG. 4I. Miro1 Reducer Rescues PD-Relevant Phenotypes in Flies. For all panels, when Miro1 Reducer was not added, the same volume of the solvent, DMSO, was supplied in fly food. Drug administration (2.5 μM) was started from day 2. (FIG. 4A-FIG. 4C) Survival curves of LRRK2^G2019S (FIG. 4A), PINK1^B9 (imprecise excision, null) and PINK1^RV (the precise excision control for PINK1^B9) (FIG. 4B), and SNCA^A53T flies (FIG. 4C). n=58-150. (FIG. 4D) Dopaminergic (DA) neurons in the PPM1/2 clusters of 22-day old flies were immunostained with anti-TH. (FIG. 4D-FIG. 4F) Quantification of the DA neuron number in the PPL1 or PPM1/2 cluster (total number divided by 2 for each brain). (FIG. 4D) LRRK2^G2019S. n=6-8 brains. (FIG. 4E) PINK1^B9 (“−”) and PINK1^RV (“+”). n=9-16. (FIG. 4F) SNCA^A53T. n=9-11. (FIG. 4G-FIG. 4I) Climbing ability (Average PI±S.E.M) of adult flies. n=24-47 flies.
In order to cross-validate the neuroprotective effect of Miro1 Reducer in vivo, we fed the compound to three well-established fly PD models: (1) Actin-GAL4>UAS-LRRK2^G2019S (ubiquitous expression of human pathogenic LRRK2); (2) PINK1 null; and (3) Elav-GAL4>UAS-SNCA^A53T (neuronal expression of human pathogenic alpha-synuclein). […]
Fly Behavior and Biochemical Assays. […] Flies were transferred into fresh vials and the numbers of dead and escaped flies were scored 3 times a week. […]

O=C(Nc1ccc(Nc2cc(-n3ccnc3)ncn2)cc1)Nc1cccc(F)c1 [Miro1 Reducer]
long-term toxicity (lifespan) (2.5 μM in food from adulthood, wild-type or PD flies): no long-term toxicity
lifespan of SNCA^A53T flies (2.5 μM in food, Log-Rank P=0.00019 0 μM v.s. 2.5 μM): extended the shortened lifespan
